Measurements: patent US20240270703A1, “HERBICIDAL COMPOUNDS” (SYNGENTA CROP PROTECTION AG, priority 2021, published 2024)

Legend:
Format in all cases: in vivo
[1] = system: Zea mays (ZEAMX); experiment: Herbicidal glasshouse test, POST application (crop damage); conditions: 130 g/ha; evaluated after 14 days; 100=total damage to plant, 0=no damage to plant; maize crop
[2] = system: Amaranthus retroflexus (AMARE); experiment: Herbicidal glasshouse test, POST application; conditions: 130 g/ha; evaluated after 14 days; 100=total damage to plant, 0=no damage to plant
[3] = system: Setaria faberi (SETFA); experiment: Herbicidal glasshouse test, POST application; conditions: 130 g/ha; evaluated after 14 days; 100=total damage to plant, 0=no damage to plant
[4] = system: Echinochloa crus-galli (ECHCG); experiment: Herbicidal glasshouse test, POST application; conditions: 130 g/ha; evaluated after 14 days; 100=total damage to plant, 0=no damage to plant
[5] = system: Echinochloa crus-galli (ECHCG); experiment: Herbicidal glasshouse test, PRE application; conditions: 130 g/ha; evaluated after 14 days; 100=total damage to plant, 0=no damage to plant
Protocol: (§1) Seeds of a variety of test species are sown in standard soil in pots (Lolium perenne (LOLPE), Amaranthus retroflexus (AMARE), Abutilon theophrasti (ABUTH), Setaria faberi (SETFA), Echinochloa crus-galli (ECHCG), Zea mays (ZEAMX)). After cultivation for one day under controlled conditions in a glasshouse (at 24/16° C., day/night; 14 hours light; 65% humidity), the plants were sprayed with an aqueous spray solution derived from the formulation of the technical active ingredient in 0.6 ml acetone and 45 ml formulation solution containing 10.6% Emulsogen EL (Registry number 61791-12-6), 42.2% N-methyl pyrrolidone, 42.2% dipropylene glycol monomethyl ether (CAS RN 34590-94-8) and 0.2% X-77 (CAS RN 11097-66-8).
(§2) The test plants were then grown in a glasshouse under controlled conditions in a glasshouse (at 24/16° C., day/night; 14 hours light; 65% humidity) and watered twice daily. After 14 days, the test was evaluated (100=total damage to plant; 0=no damage to plant, NC=data not captured). The compounds were applied at 130 g/ha unless otherwise stated.

[6] = system: Amaranthus retroflexus (AMARE); experiment: Herbicidal glasshouse test, PRE application; conditions: 130 g/ha; evaluated after 14 days; 100=total damage to plant, 0=no damage to plant
Protocol: as §1, §2

[7] = system: Setaria faberi (SETFA); experiment: Herbicidal glasshouse test, PRE application; conditions: 130 g/ha; evaluated after 14 days; 100=total damage to plant, 0=no damage to plant
Protocol: as §1, §2

[8] = system: Zea mays (ZEAMX); experiment: Herbicidal glasshouse test, PRE application (crop damage); conditions: 130 g/ha; evaluated after 14 days; 100=total damage to plant, 0=no damage to plant; maize crop
Protocol: as §1, §2

[9] = system: Abutilon theophrasti (ABUTH); experiment: Herbicidal glasshouse test, POST application; conditions: 130 g/ha; evaluated after 14 days; 100=total damage to plant, 0=no damage to plant
[10] = system: Abutilon theophrasti (ABUTH); experiment: Herbicidal glasshouse test, PRE application; conditions: 130 g/ha; evaluated after 14 days; 100=total damage to plant, 0=no damage to plant
Protocol: as §1, §2

Row | Compound | damage to plant, ZEAMX, POST Application [1] | damage to plant, AMARE, POST Application [2] | damage to plant, SETFA, POST Application [3] | damage to plant, ECHCG, POST Application [4] | damage to plant, ECHCG, PRE Application [5] | damage to plant, AMARE, PRE Application [6] | damage to plant, SETFA, PRE Application [7] | damage to plant, ZEAMX, PRE Application [8] | damage to plant, ABUTH, POST Application [9] | damage to plant, ABUTH, PRE Application [10]
1 | CN(C)S(=O)(=O)c1c(OC(F)F)ccc(C(=O)Nc2nnnn2C)c1Cl [Compound 1.009] | 10 | 100 | 90 | 90 | 100 | 100 | 100 | 10 |  | 
2 | CN(C)S(=O)(=O)c1c(OC(F)(F)F)ccc(C(=O)Nc2nnnn2C)c1Cl [Compound 1.003] | 0 | 100 | 100 | 100 | 70 | 90 | 0 | 0 | 100 | 90
3 | CCN(C)S(=O)(=O)c1c(OC(F)F)ccc(C(=O)Nc2nnnn2C)c1Cl [Compound 1.010] | 10 | 100 | 90 | 100 | 100 | 100 | 100 | 10 |  | 
4 | Cn1nnnc1NC(=O)c1ccc(OC(F)(F)F)c(S(=O)(=O)NCC2CC2)c1Cl [Compound 1.001] | 0 | 100 | 20 | 60 | 20 | 100 | 0 | 0 | 80 | 100
5 | CNS(=O)(=O)c1c(OC(F)(F)F)ccc(C(=O)Nc2nnnn2C)c1Cl [Compound 1.004] | 10 | 80 | 80 | 80 | 90 | 100 | 90 | 0 | 80 | 100
6 | CCNS(=O)(=O)c1c(OC(F)(F)F)ccc(C(=O)Nc2nnnn2C)c1Cl [Compound 1.002, 2-chloro-3-(ethylsulfamoyl)-N-(1-methyltetrazol-5-yl)-4-(trifluoromethoxy)benzamide] | 0 | 100 | 70 | 90 | 10 | 100 | 0 | 0 | 90 | 80
